# Activity calls are given as the source filed them. No cut-off for these calls is given here.
# Key:
# in vitro = conditions: human, Caco-2
# Description: Apparent permeability from apical to basolateral side of the human Caco-2 cells
# [1] = Metabolic stability in human liver microsomes assessed as systemic clearance at 1 uM after 15 mins by LC-MS/MS analysis; format: ADME, Microsome
# [2] = Metabolic stability in rat liver microsomes assessed as systemic clearance at 1 uM after 15 mins by LC-MS/MS analysis; format: ADME, Microsome
# [3] = target: Voltage-gated inwardly rectifying potassium channel KCNH2 (Homo sapiens, UniProt Q12809)
# Description: Inhibition of human ERG expressed in HEK293 cells by patch-clamp method
# [4] = target: Sodium-dependent noradrenaline transporter (Homo sapiens, UniProt P23975); experiment: biochemical
# Description: Displacement of Levo[ring-2,5,6-3H]norepinephrine from human cloned NET expressed in HEK293 cells by microplate scintillation counter
# [5] = target: Sodium-dependent serotonin transporter (Homo sapiens, UniProt P31645); experiment: biochemical
# Description: Displacement of [alpha,beta-3H(N)]-5-hydroxytryptamine from human cloned SERT expressed in HEK293 cells by microplate scintillation counter
# [6] = target: Sodium-dependent dopamine transporter (Homo sapiens, UniProt Q01959); experiment: biochemical
# Description: Displacement of 3,4-[ring-2,5,6-3H]dihydroxyphenylethylamine from human cloned DAT expressed in HEK293 cells by microplate scintillation counter
# [7] = Lipophilicity, log D of the compound; format: physicochemical; conditions: octanol/water
# [8] = Partition coefficient, log P of the compound; format: physicochemical; conditions: octanol/water
# [9] = Plasma clearance in Sprague-Dawley rat at 2.5 mg/kg, iv; format: ADME, organism-based; parameters: dose 2.5 mg/kg, route intravenous
# [10] = target: Sodium-dependent serotonin transporter (Rattus norvegicus, UniProt P31652); format: cell-based, HEK293
# [11] = Cmax in Sprague-Dawley rat at 10 mg/kg, po; format: ADME, organism-based; parameters: dose 10 mg/kg, route oral; conditions: in vivo
# [12] = Tmax in Sprague-Dawley rat at 10 mg/kg, po; format: ADME, organism-based; parameters: dose 10 mg/kg, route oral; conditions: in vivo
# [13] = AUC in Sprague-Dawley rat at 10 mg/kg, po; format: ADME, organism-based; parameters: dose 10 mg/kg, route oral; conditions: plasma
# [14] = Apparent elimination half life in Sprague-Dawley rat at 10 mg/kg, po; format: ADME, organism-based; parameters: dose 10 mg/kg, route oral; conditions: in vivo, read-out: beta t1/2 (converted)
# [15] = Apparent oral clearance in Sprague-Dawley rat at 10 mg/kg, po; format: ADME, organism-based; parameters: dose 10 mg/kg, route oral; conditions: in vivo
# [16] = AUC in Sprague-Dawley rat at 2.5 mg/kg, iv; format: ADME, organism-based; parameters: dose 2.5 mg/kg, route intravenous; conditions: plasma
# [17] = Half life in Sprague-Dawley rat at 2.5 mg/kg, iv; format: ADME, organism-based; parameters: dose 2.5 mg/kg, route intravenous; conditions: in vivo
# [18] = Mean residence time in Sprague-Dawley rat at 2.5 mg/kg, iv; format: ADME, organism-based; parameters: dose 2.5 mg/kg, route intravenous; conditions: in vivo
# [19] = Volume of distribution at steady state in Sprague-Dawley rat at 2.5 mg/kg, iv; format: ADME, organism-based; parameters: dose 2.5 mg/kg, route intravenous; conditions: in vivo, read-out: Vdss
# [20] = Volume of distribution in Sprague-Dawley rat at 2.5 mg/kg, iv; format: ADME, organism-based; parameters: dose 2.5 mg/kg, route intravenous; conditions: in vivo
# [21] = Bioavailability in Sprague-Dawley rat at 2.5 mg/kg, iv; format: ADME, organism-based; conditions: in vivo
# Rattus norvegicus [22] = experiment: Antinociceptive activity in CD rat assessed as reduction in number of hind paw flinching at 60 mg/kg, po by formalin test; format: functional; parameters: scale not given: the % may be the effect or the level left
# Rattus norvegicus [23] = experiment: Antinociceptive activity in CD rat assessed as reduction in number of hind paw flinching at 100 mg/kg, po by formalin test; format: functional, organism-based; parameters: dose 100 mg/kg
# Rattus norvegicus [24] = organism: Rattus norvegicus; experiment: Reversal of pin-prick-induced neuropathic mechanical hyperalgesia in Harlan Sprague-Dawley rat sciatic nerve ligation model; format: functional, organism-based
# in vivo [25] = conditions: Sprague-Dawley, rat, brain/plasma, po, 10 mg/kg
# Description: Ratio of drug level in brain to plasma in Sprague-Dawley rat at 10 mg/kg, po after 1 hr
# in vivo [26] = conditions: Sprague-Dawley, rat, brain/plasma, po, 10 mg/kg; remark: listed apart in the source
# Description: Ratio of drug level in brain to plasma in Sprague-Dawley rat at 10 mg/kg, po after 4 hrs
# Transporter = Transporter (Rattus norvegicus, UniProt Q63380); experiment: biochemical
# Description: Displacement of Levo[ring-2,5,6-3H]norepinephrine from rat synaptosomal NET expressed in HEK293 cells by microplate scintillation counter
# [27] = target: Sodium-dependent dopamine transporter (Rattus norvegicus, UniProt P23977); experiment: biochemical
# Description: Displacement of 3,4-[ring-2,5,6-3H]dihydroxyphenylethylamine from rat synaptosomal DAT expressed in HEK293 cells by microplate scintillation counter
# [28] = Plasma clearance in monkey at 5 mg/kg, iv or 30 mg/kg, po; format: ADME, organism-based, Macaca mulatta; conditions: rhesus monkey
# [29] = Renal clearance in monkey at 5 mg/kg, iv or 30 mg/kg, po; format: ADME, organism-based, Macaca mulatta, Kidney; conditions: rhesus monkey, in vivo; read-out: CL_renal
# [30] = Half life in monkey at 5 mg/kg, iv or 30 mg/kg, po; format: ADME, organism-based, Macaca mulatta; conditions: rhesus monkey, in vivo
# [31] = Volume of distribution at steady state in monkey at 5 mg/kg, iv or 30 mg/kg, po; format: ADME, organism-based, Macaca mulatta; conditions: rhesus monkey, in vivo, read-out: Vdss
# [32] = Cmax in monkey at 5 mg/kg, iv or 30 mg/kg, po; format: ADME, organism-based, Macaca mulatta; conditions: rhesus monkey, in vivo
# [33] = Tmax in monkey at 5 mg/kg, iv or 30 mg/kg, po; format: ADME, organism-based, Macaca mulatta; conditions: rhesus monkey, in vivo
# [34] = AUC in monkey at 5 mg/kg, iv or 30 mg/kg, po; format: ADME, organism-based, Macaca mulatta; conditions: rhesus monkey, plasma
# [35] = Bioavailability in monkey at 5 mg/kg, iv or 30 mg/kg, po; format: ADME, organism-based, Macaca mulatta; conditions: rhesus monkey, in vivo
# [36] = Plasma clearance in Beagle dog at 5 mg/kg, iv or 30 mg/kg, po; format: ADME, organism-based, Canis lupus familiaris
# [37] = Renal clearance in Beagle dog at 5 mg/kg, iv or 30 mg/kg, po; format: ADME, organism-based, Canis lupus familiaris, Kidney; conditions: in vivo, read-out: CL_renal
# [38] = Half life in Beagle dog at 5 mg/kg, iv or 30 mg/kg, po; format: ADME, organism-based, Canis lupus familiaris; conditions: in vivo
# [39] = Volume of distribution at steady state in Beagle dog at 5 mg/kg, iv or 30 mg/kg, po; format: ADME, organism-based, Canis lupus familiaris; conditions: in vivo, read-out: Vdss
# [40] = Tmax in Beagle dog at 5 mg/kg, iv or 30 mg/kg, po; format: ADME, organism-based, Canis lupus familiaris; conditions: in vivo
# [41] = AUC in Beagle dog at 5 mg/kg, iv or 30 mg/kg, po; format: ADME, organism-based, Canis lupus familiaris; conditions: plasma
# [42] = Bioavailability in Beagle dog at 5 mg/kg, iv or 30 mg/kg, po; format: ADME, organism-based, Canis lupus familiaris; conditions: in vivo
# [43] = Plasma clearance in mouse at 5 mg/kg, iv or 30 mg/kg, po; format: ADME, organism-based
# [44] = Half life in mouse at 5 mg/kg, iv or 30 mg/kg, po; format: ADME, organism-based; conditions: in vivo
# [45] = Volume of distribution at steady state in mouse at 5 mg/kg, iv or 30 mg/kg, po; format: ADME, organism-based; conditions: in vivo, read-out: Vdss
# [46] = Cmax in mouse at 5 mg/kg, iv or 30 mg/kg, po; format: ADME, organism-based; conditions: in vivo, read-out: Vdss
# [47] = Tmax in mouse at 5 mg/kg, iv or 30 mg/kg, po; format: ADME, organism-based; conditions: in vivo
# [48] = AUC in mouse at 5 mg/kg, iv or 30 mg/kg, po; format: ADME, organism-based; conditions: plasma
# [49] = Bioavailability in mouse at 5 mg/kg, iv or 30 mg/kg, po; format: ADME, organism-based; conditions: in vivo
# Description for physchem: Dissociation constant, pKa of the compound
# Sodium-dependent noradrenaline transporter, sequence (P23975 whole entry): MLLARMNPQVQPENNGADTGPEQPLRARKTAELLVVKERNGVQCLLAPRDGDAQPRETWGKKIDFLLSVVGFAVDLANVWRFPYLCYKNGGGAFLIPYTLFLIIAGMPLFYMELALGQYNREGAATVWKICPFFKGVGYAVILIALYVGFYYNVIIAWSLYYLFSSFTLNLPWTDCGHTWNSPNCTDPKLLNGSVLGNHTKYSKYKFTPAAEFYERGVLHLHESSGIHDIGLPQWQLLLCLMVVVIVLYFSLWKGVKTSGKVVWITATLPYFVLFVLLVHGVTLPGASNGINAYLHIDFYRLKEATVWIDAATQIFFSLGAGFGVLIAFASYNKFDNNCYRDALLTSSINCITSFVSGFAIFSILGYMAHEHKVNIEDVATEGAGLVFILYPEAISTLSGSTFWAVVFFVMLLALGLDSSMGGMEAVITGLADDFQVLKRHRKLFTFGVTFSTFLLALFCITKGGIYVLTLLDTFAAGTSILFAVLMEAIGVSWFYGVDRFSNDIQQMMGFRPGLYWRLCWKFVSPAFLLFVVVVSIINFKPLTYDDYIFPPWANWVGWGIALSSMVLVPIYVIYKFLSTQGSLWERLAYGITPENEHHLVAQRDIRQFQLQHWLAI
# Sodium-dependent dopamine transporter (Homo sapiens, UniProt Q01959), sequence (Q01959 whole entry): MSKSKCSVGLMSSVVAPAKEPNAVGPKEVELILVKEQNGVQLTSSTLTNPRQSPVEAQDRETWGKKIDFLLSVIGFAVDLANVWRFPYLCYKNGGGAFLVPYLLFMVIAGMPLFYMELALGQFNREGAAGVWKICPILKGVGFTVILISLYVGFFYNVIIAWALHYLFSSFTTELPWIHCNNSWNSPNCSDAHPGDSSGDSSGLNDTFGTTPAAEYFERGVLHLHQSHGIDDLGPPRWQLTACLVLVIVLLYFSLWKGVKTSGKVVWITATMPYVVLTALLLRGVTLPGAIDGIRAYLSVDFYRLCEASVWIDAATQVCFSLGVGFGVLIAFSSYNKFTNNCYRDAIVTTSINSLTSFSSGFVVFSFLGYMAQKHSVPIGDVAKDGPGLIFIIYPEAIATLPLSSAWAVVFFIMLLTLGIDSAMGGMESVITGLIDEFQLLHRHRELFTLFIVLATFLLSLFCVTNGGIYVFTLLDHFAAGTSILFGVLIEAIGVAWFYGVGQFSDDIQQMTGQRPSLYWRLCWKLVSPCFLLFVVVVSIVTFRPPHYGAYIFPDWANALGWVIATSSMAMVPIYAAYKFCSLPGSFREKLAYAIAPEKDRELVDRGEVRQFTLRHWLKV
# Sodium-dependent serotonin transporter (Homo sapiens, UniProt P31645), sequence (P31645 whole entry): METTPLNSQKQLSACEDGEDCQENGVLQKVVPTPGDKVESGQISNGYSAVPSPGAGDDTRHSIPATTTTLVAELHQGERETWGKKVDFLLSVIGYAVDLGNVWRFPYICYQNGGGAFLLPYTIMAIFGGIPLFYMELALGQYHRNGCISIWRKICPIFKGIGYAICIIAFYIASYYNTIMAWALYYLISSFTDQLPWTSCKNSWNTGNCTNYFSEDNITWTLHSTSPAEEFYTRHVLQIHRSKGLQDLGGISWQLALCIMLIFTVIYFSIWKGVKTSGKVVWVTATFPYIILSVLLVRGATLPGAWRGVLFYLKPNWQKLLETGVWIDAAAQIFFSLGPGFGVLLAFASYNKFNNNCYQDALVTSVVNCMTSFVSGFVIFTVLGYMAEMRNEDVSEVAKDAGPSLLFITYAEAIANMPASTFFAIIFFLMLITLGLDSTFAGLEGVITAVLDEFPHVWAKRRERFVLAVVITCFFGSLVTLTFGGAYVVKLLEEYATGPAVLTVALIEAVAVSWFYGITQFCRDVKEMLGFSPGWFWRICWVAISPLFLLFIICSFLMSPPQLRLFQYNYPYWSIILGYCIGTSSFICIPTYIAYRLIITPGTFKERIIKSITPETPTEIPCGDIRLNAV
# Transporter, sequence (Q63380 whole entry): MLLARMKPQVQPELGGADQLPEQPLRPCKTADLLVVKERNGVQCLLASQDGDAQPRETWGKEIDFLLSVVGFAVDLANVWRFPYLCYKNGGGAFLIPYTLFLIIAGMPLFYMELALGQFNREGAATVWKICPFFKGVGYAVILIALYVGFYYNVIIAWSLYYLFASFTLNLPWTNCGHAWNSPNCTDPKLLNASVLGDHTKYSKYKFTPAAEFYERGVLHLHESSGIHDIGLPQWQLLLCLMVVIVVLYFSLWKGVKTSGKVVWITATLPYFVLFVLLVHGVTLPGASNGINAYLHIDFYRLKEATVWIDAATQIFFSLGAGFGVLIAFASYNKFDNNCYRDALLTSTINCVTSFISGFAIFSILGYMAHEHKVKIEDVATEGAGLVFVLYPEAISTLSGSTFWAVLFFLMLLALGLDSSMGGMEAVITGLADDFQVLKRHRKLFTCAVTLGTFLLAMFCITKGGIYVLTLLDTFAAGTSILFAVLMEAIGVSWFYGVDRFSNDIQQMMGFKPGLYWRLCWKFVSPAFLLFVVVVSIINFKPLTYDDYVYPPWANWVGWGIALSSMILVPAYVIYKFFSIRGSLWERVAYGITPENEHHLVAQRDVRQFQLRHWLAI
# Sodium-dependent serotonin transporter (Rattus norvegicus, UniProt P31652), sequence (P31652 whole entry): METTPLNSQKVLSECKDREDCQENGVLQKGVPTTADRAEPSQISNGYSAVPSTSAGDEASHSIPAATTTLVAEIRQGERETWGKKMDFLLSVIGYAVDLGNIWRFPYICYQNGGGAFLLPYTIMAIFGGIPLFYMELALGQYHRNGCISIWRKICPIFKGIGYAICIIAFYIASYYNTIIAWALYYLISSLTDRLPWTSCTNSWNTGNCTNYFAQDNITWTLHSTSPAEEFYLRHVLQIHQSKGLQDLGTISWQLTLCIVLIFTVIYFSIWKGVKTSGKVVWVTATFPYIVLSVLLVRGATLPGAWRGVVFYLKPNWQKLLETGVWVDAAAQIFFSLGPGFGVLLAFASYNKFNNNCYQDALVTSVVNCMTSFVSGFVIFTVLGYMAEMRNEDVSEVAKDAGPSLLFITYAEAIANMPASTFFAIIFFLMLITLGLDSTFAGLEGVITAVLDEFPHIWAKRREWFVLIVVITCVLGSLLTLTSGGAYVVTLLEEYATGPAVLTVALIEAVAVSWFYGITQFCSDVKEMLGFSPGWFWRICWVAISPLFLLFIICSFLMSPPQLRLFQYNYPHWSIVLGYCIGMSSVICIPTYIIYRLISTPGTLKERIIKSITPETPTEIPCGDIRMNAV
# Sodium-dependent dopamine transporter (Rattus norvegicus, UniProt P23977), sequence (P23977 whole entry): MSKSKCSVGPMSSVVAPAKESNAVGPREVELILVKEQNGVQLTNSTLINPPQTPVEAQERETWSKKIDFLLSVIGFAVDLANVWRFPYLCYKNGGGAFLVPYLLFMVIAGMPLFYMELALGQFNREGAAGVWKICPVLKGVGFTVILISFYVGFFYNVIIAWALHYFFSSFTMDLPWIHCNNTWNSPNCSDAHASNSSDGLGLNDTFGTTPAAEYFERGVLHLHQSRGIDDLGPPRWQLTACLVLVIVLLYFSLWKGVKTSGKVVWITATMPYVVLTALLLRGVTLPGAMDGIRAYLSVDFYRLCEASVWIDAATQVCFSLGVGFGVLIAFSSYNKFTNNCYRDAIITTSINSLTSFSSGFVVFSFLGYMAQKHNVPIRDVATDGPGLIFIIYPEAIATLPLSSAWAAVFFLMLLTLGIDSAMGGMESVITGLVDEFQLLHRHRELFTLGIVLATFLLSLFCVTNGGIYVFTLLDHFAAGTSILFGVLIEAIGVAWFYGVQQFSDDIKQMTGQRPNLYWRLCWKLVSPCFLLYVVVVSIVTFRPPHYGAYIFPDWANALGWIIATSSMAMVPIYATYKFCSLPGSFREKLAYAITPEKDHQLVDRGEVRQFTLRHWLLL
# Voltage-gated inwardly rectifying potassium channel KCNH2, sequence (Q12809 whole entry): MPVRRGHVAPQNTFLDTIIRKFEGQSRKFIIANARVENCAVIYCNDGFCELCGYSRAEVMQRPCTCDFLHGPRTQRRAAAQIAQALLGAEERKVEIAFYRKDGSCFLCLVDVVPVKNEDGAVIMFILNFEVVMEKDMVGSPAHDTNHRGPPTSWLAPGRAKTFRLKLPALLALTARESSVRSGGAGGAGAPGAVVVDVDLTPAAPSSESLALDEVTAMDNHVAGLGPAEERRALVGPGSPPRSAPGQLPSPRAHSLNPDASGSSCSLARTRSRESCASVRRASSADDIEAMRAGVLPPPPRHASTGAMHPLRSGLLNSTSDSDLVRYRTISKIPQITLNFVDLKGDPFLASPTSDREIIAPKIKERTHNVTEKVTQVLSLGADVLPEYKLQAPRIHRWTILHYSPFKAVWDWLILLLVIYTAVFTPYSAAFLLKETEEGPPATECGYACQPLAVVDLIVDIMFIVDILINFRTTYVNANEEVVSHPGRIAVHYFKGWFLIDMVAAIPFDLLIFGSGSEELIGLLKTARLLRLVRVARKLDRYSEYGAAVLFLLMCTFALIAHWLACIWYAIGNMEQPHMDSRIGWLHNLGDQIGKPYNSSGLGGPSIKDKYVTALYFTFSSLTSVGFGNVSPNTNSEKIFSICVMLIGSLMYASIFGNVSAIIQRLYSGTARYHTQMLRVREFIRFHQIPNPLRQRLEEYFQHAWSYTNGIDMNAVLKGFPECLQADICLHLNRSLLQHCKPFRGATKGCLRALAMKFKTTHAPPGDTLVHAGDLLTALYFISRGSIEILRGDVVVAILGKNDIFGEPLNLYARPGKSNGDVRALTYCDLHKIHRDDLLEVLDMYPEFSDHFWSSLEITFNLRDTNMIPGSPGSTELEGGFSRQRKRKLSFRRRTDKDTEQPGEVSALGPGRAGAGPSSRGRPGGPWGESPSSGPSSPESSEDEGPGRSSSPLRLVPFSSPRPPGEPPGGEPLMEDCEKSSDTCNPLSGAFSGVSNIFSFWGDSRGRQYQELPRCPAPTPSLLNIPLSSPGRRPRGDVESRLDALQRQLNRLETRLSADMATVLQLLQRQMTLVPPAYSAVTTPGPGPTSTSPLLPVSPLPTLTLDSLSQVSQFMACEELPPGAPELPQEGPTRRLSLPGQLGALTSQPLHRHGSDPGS
compound,measurement,setting,value
C[C@H]1O[C@@H](O[C@H]2[C@@H](O)C[C@H](O[C@H]3[C@@H](O)C[C@H](O[C@H]4CC[C@@]5(C)[C@H](CC[C@@H]6[C@@H]5C[C@@H](O)[C@]5(C)[C@@H](C7=CC(=O)OC7)CC[C@]65O)C4)O[C@@H]3C)O[C@@H]2C)C[C@H](O)[C@@H]1O [DIGOXIN],Papp A→B,in vitro,1 ×10⁻⁶ cm/s
C=CCN(C(=O)[C@@]1(c2cccs2)C[C@H]1CN)C1CC1,CLhep predicted at 1 µM,[1],5 mL/min/kg
same,CLhep predicted at 1 µM,[2],63 mL/min/kg
same,IC50,[3],> 10000 nM
same,Papp A→B,in vitro,17.8 ×10⁻⁶ cm/s
same,IC50,[4],17 nM
same,IC50,[5],45 nM
same,IC50,[6],> 10000 nM
C=CCN(Cc1nccs1)C(=O)[C@@]1(c2cccs2)C[C@H]1CN,logD,[7],-0.4
same,logP,[8],1.6
same,CLhep predicted at 1 µM,[1],7 mL/min/kg
same,CLhep predicted at 1 µM,[2],47 mL/min/kg
same,pKa,physchem,9.4
same,Papp A→B,in vitro,6.4 ×10⁻⁶ cm/s
same,IC50,[4],13 nM
same,IC50,[5],16 nM
same,IC50,[6],> 10000 nM
CCN(CC)C(=O)[C@]1(c2ccccc2)C[C@H]1CN,clearance,[9],58 mL/min/kg
same,IC50,[10],28 nM
same,logD,[7],-0.2
same,logP,[8],1.6
same,CLhep predicted at 1 µM,[1],5 mL/min/kg
same,CLhep predicted at 1 µM,[2],24 mL/min/kg
same,Cmax,[11],232 ng/mL
same,Tmax,[12],0.3 h
same,AUC,[13],566 ng·h/mL
same,half-life,[14],1.3 h
same,CL/F,[15],294 mL/min/kg
same,AUC,[16],897 ng·h/mL
same,half-life,[17],0.8 h
same,MRT,[18],0.52 h
same,Vd,[19],2 L/kg
same,Vd,[20],4.3 L/kg
same,bioavailability,[21],16%
same,Activity,Rattus norvegicus [22],56%
same,Activity,Rattus norvegicus [23],Active
same,Activity,Rattus norvegicus [24],Dose-dependent effect
same,Kp at 1 h,in vivo [25],0.42
same,Kp at 4 h,in vivo [26],0.86
same,pKa,physchem,9.6
same,IC50,Transporter,16 nM
same,IC50,[27],20000 nM
C=CCN(CC=C)C(=O)[C@@]1(c2cccs2)C[C@H]1CN.Cl,clearance,[28],22.9 mL/min/kg
same,CL renal,[29],3.9 mL/min/kg
same,half-life,[30],2.1 h
same,Vd,[31],3.8 L/kg
same,Cmax,[32],905 ng/mL
same,Tmax,[33],4.5 h
same,AUC,[34],6320 ng·h/mL
same,bioavailability,[35],34%
same,clearance,[36],19.2 mL/min/kg
same,CL renal,[37],2 mL/min/kg
same,half-life,[38],2.4 h
same,Vd,[39],3.6 L/kg
same,Tmax,[40],1.8 h
same,AUC,[41],17100 ng·h/mL
same,bioavailability,[42],78%
same,clearance,[43],135 mL/min/kg
same,half-life,[44],0.79 h
same,Vd,[45],5.4 L/kg
same,Cmax,[46],1730 ng/mL
same,Tmax,[47],0.3 h
same,AUC,[48],3020 ng·h/mL
same,bioavailability,[49],92%
C=CCN(CC)C(=O)[C@@]1(c2cccs2)C[C@H]1CN,CLhep predicted at 1 µM,[1],11 mL/min/kg
same,CLhep predicted at 1 µM,[2],62 mL/min/kg
same,Papp A→B,in vitro,13.7 ×10⁻⁶ cm/s
same,IC50,[4],15 nM
same,IC50,[5],140 nM
same,IC50,[6],> 10000 nM

# — ChEMBL document CHEMBL1152288, “Characterization of thien-2-yl 1S,2R-milnacipran analogues as potent norepinephrine/serotonin transporter inhibitors for the treatment of neuropathic pain” (J Med Chem, 2008)
